Assay results from patent US20060189608A1, “Methods for treating ocular angiogenesis, retinal edema, retinal ischemia, and diabetic retinopathy using selective RTK inhibitors” (Alcon, Inc., priority 2005, published 2006).

How the values were obtained:
LYN = LYN (Homo sapiens, UniProt P07948); assay: Kinase inhibition profile, non-related TK; type: biochemical; conditions: ATP concentration of 1 nM
[1] = system: laser-induced choroidal neovascularization (CNV); assay: Prevention of laser-induced CNV, intravitreal injection, mouse; type: in vivo, C57BL/6J mice; conditions: for inhibition of CNV as compared to vehicle-injected eyes: 5 ul intravitreal immediately after laser, 14 days post-laser
Method: (§1) Methods. CNV was generated by laser-induced rupture of Bruch's membrane. Briefly, 4 to 5 week old male C57BL/6J mice were anesthetized using intraperitoneal administration of ketamine hydrochloride (100 mg/kg) and xylazine (5 mg/kg) and the pupils of both eyes dilated with topical ocular instillation of 1% tropicamide and 2.5% Mydfin®. One drop of topical cellulose (Gonioscopic®) was used to lubricate the cornea. A hand-held cover slip was applied to the cornea and used as a contact lens to aid visualization of the fundus. Three to four retinal burns were placed in randomly assigned eye (right or left eye for each mouse) using the Alcon 532 nm EyeLite laser with a slit 5 lamp delivery system. The laser burns were used to generate a rupture in Bruch's membrane, which was indicated ophthalmoscopically by the formation of a bubble under the retina. Only mice with laser burns that produced three bubbles per eye were included in the study. Bums were typically placed at the 3, 6, 9 or 12 o'clock positions in the posterior pole of the retina, avoiding the branch retinal arteries and veins.
(§2) Each mouse was randomly assigned into one of the following treatment groups: noninjected controls, sham-injected controls, vehicle-injected mice, or one of three RTKi-injected groups. Control mice received laser photocoagulation in both eyes, where one eye received a sham injection, i.e. a pars plana needle puncture. […] The intravitreal injection was performed immediately after laser photocoagulation. At 14 days post-laser, all mice were anesthetized and systemically perfused with fluorescein-labeled dextran. Eyes were then harvested and prepared as choroidal flat mounts with the RPE side oriented towards the observer. All choroidal flat mounts were examined using a fluorescent microscope. Digital images of the CNV were captured, where the CNV was identified as areas of hyperfluorescence within the pigmented background. Computerized image analysis was used to delineate and measure the two dimensional area of the hyperfluorescent CNV per lesion (um^2) for the outcome measurement. The median CNV area/burn per mouse per treatment group or the mean CNV area/burn per treatment group was used for statistical analysis depending on the normality of data distribution; P≦0.05 was considered significant.

INSR = INSR (Homo sapiens, UniProt P06213); assay: Kinase inhibition profile, non-related TK; type: biochemical; conditions: ATP concentration of 1 nM
INSR, sequence (P06213 28-1382): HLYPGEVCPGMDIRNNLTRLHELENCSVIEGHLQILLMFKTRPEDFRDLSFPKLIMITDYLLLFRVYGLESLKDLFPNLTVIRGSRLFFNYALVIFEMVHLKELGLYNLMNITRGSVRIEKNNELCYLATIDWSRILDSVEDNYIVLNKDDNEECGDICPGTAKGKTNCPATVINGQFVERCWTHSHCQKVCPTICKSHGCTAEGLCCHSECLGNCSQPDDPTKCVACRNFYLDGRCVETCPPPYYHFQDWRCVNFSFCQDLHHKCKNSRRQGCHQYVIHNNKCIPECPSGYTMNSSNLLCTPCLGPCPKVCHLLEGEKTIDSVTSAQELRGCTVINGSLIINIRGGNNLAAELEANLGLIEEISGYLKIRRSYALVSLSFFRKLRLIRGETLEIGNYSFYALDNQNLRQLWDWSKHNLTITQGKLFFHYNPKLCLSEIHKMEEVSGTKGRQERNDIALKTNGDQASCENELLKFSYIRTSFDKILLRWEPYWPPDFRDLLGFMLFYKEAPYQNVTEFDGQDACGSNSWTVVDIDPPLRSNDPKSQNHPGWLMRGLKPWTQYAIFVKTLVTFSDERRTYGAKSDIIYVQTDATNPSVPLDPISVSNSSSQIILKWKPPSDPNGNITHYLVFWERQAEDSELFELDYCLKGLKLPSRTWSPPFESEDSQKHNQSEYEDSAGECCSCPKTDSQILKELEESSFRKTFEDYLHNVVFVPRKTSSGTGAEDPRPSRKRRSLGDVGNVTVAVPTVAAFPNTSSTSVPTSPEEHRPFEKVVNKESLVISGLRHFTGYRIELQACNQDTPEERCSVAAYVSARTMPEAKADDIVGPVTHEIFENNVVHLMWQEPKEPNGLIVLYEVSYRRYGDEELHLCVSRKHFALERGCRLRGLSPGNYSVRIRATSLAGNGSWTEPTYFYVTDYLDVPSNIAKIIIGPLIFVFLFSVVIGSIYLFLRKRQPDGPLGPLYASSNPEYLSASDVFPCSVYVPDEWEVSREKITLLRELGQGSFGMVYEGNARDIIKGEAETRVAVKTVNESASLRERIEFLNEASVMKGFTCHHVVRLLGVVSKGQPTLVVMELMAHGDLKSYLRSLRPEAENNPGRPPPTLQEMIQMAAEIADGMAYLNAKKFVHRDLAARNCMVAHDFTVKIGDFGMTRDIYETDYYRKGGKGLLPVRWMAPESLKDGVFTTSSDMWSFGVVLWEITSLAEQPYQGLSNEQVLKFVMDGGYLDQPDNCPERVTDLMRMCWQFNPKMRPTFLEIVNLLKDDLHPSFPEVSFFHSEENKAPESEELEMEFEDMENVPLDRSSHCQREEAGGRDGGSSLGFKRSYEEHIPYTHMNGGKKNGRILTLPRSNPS

FYN = FYN (Homo sapiens, UniProt P06241); assay: Kinase inhibition profile, non-related TK; type: biochemical; conditions: ATP concentration of 1 nM
FYN, sequence (P06241 whole entry): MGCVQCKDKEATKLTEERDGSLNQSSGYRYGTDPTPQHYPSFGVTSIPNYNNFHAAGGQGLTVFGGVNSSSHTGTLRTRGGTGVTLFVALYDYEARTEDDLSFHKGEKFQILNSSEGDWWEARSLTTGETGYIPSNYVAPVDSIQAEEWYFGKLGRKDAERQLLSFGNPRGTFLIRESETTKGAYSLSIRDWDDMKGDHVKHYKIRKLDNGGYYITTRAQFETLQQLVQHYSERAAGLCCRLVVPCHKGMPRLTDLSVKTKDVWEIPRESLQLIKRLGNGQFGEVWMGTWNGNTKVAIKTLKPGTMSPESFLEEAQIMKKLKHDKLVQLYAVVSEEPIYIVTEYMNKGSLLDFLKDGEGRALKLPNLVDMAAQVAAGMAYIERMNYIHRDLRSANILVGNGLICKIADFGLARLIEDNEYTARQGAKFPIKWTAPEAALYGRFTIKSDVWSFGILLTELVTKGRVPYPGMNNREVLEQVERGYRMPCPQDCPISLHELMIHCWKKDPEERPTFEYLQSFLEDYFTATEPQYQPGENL

[2] = system: VEGF-induced retinal vascular permeability; assay: VEGF-induced retinal vascular permeability, intravitreal injection, rat; type: in vivo, Sprague-Dawley rats; conditions: 10 μl intravitreal
Method: METHODS: Adult Sprague-Dawley rats were anesthetized with intramuscular ketamine/xylazine and their pupils dilated with topical cycloplegics. […] Ten μl of each compound was intravitreally injected in each treatment eye (n=6 eyes per group). Three days following first intravitreal injection, all animals received an intravitreal injection of 10 μl 400 ng hr VEGF in both eyes. Twenty-four hours post-injection of VEGF, intravenous infusion of 3% Evans blue dye was performed in all animals, where 50 mg/kg of Evans blue dye was injected via the lateral tail vein during general anesthesia. After the dye had circulated for 90 minutes, the rats were euthanized. The rats were then systemically perfused with balanced salt solution, and then both eyes of each rat were immediately enucleated and the retinas harvested using a surgical microscope. After measurement of the retinal wet weight, the Evans blue dye was extracted by placing the retina in a 0.2 ml formamide (Sigma) and then the homogenized and ultracentrifuged. Blood samples were centrifuged and the plasma diluted 100 fold in formamide. For both retina and plasma samples, 60 μl of supernatant was used to measure the Evans blue dye absorbance (ABS) with at 620/740 nm. The blood-retinal barrier breakdown and subsequent retinal vascular permeability as measured by dye absorbance were calculated as means±s.e.m. of net ABS/wet weight/plasma ABS. A two-tailed Student's t-test was used for pair wise comparisons between OS and OD eyes in each group. One way ANOVA was used to determine an overall difference between treatment means, where P≦0.05 was considered significant.

[3] = system: diabetes-induced retinal vascular permeability; assay: Diabetes-induced retinal vascular permeability, oral gavage, STZ rat model
Method: METHODS: Diabetes was induced in male Long-Evans rats with 65 mg/kg streptozotocin (STZ) after an overnight fast. […] After 2 weeks, jugular vein catheters were implanted 1 day prior to experimentation for the infusion of indicator dye. Retinal vascular permeability, RVP, was measured using Evan's blue albumin permeation (45 mg/kg) after a 2 hour circulation period.

IGFR = IGFR (Homo sapiens, UniProt P08069); assay: Kinase inhibition profile, non-related TK; type: biochemical; conditions: ATP concentration of 1 nM
IGFR, sequence (P08069 31-1367): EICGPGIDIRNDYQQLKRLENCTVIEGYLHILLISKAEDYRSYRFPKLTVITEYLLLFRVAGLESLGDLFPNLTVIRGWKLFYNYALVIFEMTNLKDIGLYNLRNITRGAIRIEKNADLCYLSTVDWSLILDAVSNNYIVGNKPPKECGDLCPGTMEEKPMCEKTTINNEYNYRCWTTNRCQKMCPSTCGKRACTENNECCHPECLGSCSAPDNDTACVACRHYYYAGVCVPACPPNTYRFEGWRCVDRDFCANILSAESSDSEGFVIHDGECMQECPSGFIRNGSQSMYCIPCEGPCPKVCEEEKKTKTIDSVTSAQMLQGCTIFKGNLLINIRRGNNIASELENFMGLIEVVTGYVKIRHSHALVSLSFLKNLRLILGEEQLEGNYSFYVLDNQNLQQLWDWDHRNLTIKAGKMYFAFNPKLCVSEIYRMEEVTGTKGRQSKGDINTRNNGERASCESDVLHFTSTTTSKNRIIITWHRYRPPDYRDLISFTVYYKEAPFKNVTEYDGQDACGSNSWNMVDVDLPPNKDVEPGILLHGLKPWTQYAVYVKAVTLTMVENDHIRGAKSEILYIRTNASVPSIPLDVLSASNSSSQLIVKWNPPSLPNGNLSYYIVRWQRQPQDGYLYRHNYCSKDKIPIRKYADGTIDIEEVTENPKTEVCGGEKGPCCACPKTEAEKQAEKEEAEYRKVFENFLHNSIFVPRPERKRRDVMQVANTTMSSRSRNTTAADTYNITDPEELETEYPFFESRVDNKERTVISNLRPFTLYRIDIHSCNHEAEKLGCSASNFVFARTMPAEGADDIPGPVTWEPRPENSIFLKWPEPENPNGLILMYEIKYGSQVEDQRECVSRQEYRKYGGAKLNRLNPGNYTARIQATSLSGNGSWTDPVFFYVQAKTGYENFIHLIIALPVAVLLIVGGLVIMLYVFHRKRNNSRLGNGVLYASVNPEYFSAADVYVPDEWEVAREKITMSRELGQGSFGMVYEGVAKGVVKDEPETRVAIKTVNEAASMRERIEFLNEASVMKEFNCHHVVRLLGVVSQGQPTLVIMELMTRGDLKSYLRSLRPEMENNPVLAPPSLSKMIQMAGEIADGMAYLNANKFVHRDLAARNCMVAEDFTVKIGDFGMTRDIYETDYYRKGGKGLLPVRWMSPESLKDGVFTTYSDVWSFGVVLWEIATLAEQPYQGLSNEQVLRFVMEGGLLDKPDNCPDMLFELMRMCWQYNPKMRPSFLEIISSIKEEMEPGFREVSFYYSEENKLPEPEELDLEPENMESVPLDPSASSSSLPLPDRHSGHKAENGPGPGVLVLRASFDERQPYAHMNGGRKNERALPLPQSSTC

[4] = system: existing laser-induced choroidal neovascularization (CNV); assay: Regression of existing laser-induced CNV, intravitreal injection, mouse; type: in vivo; conditions: for Mean CNV / Median CNV: intravitreal at day 7, day 14; for inhibition of CNV as compared to vehicle-injected eyes at day 14 post-laser: intravitreal at day 7; for reduction of median CNV area compared to CNV present at 7 days post-laser: intravitreal at day 7, read at day 14
Method: as §1, §2
METHODS: CNV was generated by laser-induced rupture of Bruch's membrane as described above in Example 3. Each mouse was randomly assigned to one of the following treatment groups: noninjected controls, sham-injected controls, vehicle-injected mice, AL-39324 injected groups. Control mice received laser photocoagulation in both eyes, where one eye received a sham injection, i.e. a pars plana needle puncture. […] All mice received laser photocagulation at day 0. For mice randomized to an injection group, a single intravitreal injection was performed at 7 days post-laser. Also at 7 days post-laser, several mice with no-injection were euthanized and their eyes used for controls. At 14 days post-laser, all remaining mice were euthanized and systemically perfused with fluorescein-labeled dextran. Eyes were then harvested and prepared as choroidal flat mounts with the RPE side oriented towards the observer. Choroidal flat mounts were analyzed as described above in Example 3.

LYN, sequence (P07948 whole entry): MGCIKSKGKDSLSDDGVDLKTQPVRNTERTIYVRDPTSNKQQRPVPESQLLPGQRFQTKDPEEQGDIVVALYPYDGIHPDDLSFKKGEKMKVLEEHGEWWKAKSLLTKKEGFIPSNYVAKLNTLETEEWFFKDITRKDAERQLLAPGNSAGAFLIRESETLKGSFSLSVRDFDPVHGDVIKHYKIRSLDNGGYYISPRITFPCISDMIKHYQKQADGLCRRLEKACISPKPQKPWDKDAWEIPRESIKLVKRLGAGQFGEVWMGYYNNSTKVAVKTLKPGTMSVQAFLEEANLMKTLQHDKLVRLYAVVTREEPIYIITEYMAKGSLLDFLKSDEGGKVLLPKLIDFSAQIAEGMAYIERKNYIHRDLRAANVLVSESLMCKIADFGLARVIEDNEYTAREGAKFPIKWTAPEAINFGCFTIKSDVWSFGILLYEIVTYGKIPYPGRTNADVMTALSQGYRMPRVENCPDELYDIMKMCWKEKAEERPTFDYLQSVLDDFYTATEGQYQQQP

Cc1ccc(F)c(NC(=O)Nc2ccc(-c3cccc4[nH]nc(N)c34)cc2)c1 [AL-39324, N-[4-[3-amino-1H-indazol-4-yl)phenyl]-N′-(2-fluoro-5-methylphenyl)urea]
IC50 (LYN): > 20 µM | CNV versus vehicle injected eyes ([1]; 0.3%, 5 ul intravitreal): marginal statistical difference | mean±s.d. CNV area/burn per mouse ([1]; 0.3%, 5 ul intravitreal): 44283±28886 um^2 | median CNV area/burn per mouse ([1]; 0.3%, 5 ul intravitreal): 38891 um^2 | mean±s.d. CNV area/burn per mouse ([1]; 1%, 5 ul intravitreal): 21036±3100 um^2 | median CNV area/burn per mouse ([1]; 1%, 5 ul intravitreal): 21122 um^2 | inhibition of CNV as compared to vehicle-injected eyes ([1]; 1%): 84.1% | mean±s.d. CNV area/burn per mouse ([1]; 3%, 5 ul intravitreal): 27288±12109 um^2 | median CNV area/burn per mouse ([1]; 3%, 5 ul intravitreal): 22665 um^2 | inhibition of CNV as compared to vehicle-injected eyes ([1]; 3%): 83.0% | IC50 (INSR): > 50 µM | IC50 (FYN): > 50 µM | decrease of retinal vascular permeability as compared to vehicle-injected eyes ([2]; 0.3%): 50% | mean ABS±s.e.m. (net ABS/wet weight/plasma ABS, Evans blue) ([2]; 0.3%): 4.84±0.64 | decrease of retinal vascular permeability as compared to vehicle-injected eyes ([2]; 1.0%): 61% | mean ABS±s.e.m. (net ABS/wet weight/plasma ABS, Evans blue) ([2]; 1.0%): 3.87±0.62 | decrease of retinal vascular permeability as compared to vehicle-injected eyes ([2]; 3%): 53% | mean ABS±s.e.m. (net ABS/wet weight/plasma ABS, Evans blue) ([2]; 3.0%): 4.75±0.40 | RVP ([3]; NDM treated at 5 mg/kg/d): unchanged | Blood glucose levels and body weights, DM control vs DM treatment groups ([3]; oral, DM rats): not different | tolerability, systemic or ERG side effects ([3]; oral, NDM and DM groups): well tolerated by both NDM and DM groups with no observed systemic or ERG side effects | IC50 (IGFR): > 50 µM | Mean CNV ([4]; 1% (2 μl)): 31000 µm² | Median CNV ([4]; 1% (2 μl)): 28300 µm² | Mean CNV ([4]; 1% (5 μl)): 39200 µm² | Median CNV ([4]; 1% (5 μl)): 36400 µm² | inhibition of CNV as compared to vehicle-injected eyes at day 14 post-laser ([4]; 2 μl 1%): 55.9% | reduction of median CNV area compared to CNV present at 7 days post-laser ([4]; 2 μl 1%): 45.4% | Mean CNV ([4]; 3% (5 μl)): 35200 µm² | Median CNV ([4]; 3% (5 μl)): 30600 µm² | inhibition of CNV as compared to vehicle-injected eyes at day 14 post-laser ([4]; 3%): 52.3% | inhibition of CNV as compared to vehicle-injected eyes at day 14 post-laser ([4]; 5 μl 1%): 43.7% | reduction of median CNV area compared to CNV present at 7 days post-laser ([4]; 5 μl 1%): 29.7% | reduction of median CNV area compared to CNV present at 7 days post-laser ([4]; 5 μl 3%): 41.0%
